Data on eight compounds can be found in patent US20250325690A1, “ANTIBODY-DRUG CONJUGATE WITH TWO TYPES OF DRUG-LINKER CONJUGATES ON SINGLE ANTIBODY” (priority 2022, published 2025).

Entries after “also recorded” stand apart in the source; their conditions may differ. Where two headings read alike, the source gives them in different places.

The target of one data set is T1, DDX5 (Homo sapiens, UniProt P17844).
T1 construct: endogenous in cells; host or cells: FaDu and A549 cell lines
Type of data set: cell-based. Particulars: FaDu and A549, 0, 10, 100 nM, 24 hours.

For data set [1], the system named is survivin, cIAP2, Mcl-1, XIAP. The data set is described as follows: Western blotting of anti-apoptotic protein expression. Particulars: HCT-8 and FaDu cell lines; FIG. 17.
In data set [2] the test system is cancer cells. Briefly: Cytotoxicity in cancer cell lines. Type of data set: cell-based. Particulars: 140 cell lines from various cancer types, most cancer cells.
The next data set deals with T2, ABCG2 transporter (Homo sapiens, UniProt Q9UNQ0).
T2 sequence (Q9UNQ0 1-655): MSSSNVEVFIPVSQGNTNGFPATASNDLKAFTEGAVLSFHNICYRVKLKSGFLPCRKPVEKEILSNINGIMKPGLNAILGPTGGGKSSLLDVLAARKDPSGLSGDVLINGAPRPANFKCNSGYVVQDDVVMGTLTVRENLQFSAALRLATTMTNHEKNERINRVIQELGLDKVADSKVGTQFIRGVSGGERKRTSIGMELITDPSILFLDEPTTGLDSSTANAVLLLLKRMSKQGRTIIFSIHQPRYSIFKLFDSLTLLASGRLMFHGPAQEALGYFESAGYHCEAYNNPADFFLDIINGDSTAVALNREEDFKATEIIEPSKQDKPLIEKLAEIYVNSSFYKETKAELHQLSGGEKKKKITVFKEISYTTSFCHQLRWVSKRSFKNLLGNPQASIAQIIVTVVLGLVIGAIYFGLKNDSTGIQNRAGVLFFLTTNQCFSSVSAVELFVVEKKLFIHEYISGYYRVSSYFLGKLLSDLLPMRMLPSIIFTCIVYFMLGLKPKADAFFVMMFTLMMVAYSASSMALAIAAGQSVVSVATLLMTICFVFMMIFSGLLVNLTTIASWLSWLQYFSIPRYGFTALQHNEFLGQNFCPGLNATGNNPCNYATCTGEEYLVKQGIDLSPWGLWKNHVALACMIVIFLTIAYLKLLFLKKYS
Briefly: Effect of ABCG2 transporter on drug. Type of data set: cell-based.

Data set [3] concerns cancer cell line xenograft models. The data set is described as follows: Cancer cell line xenograft models, FL118 versus SN-38. Type of data set: in vivo. Particulars: same amount as SN-38.
The nature of another data set: GLP-toxicity tests. Particulars: mice and beagle dogs. Type of data set: in vivo.
For another data set, the target named is T3, DNA topoisomerase-1 (Homo sapiens, UniProt P11387).
T3 sequence (P11387 1-765): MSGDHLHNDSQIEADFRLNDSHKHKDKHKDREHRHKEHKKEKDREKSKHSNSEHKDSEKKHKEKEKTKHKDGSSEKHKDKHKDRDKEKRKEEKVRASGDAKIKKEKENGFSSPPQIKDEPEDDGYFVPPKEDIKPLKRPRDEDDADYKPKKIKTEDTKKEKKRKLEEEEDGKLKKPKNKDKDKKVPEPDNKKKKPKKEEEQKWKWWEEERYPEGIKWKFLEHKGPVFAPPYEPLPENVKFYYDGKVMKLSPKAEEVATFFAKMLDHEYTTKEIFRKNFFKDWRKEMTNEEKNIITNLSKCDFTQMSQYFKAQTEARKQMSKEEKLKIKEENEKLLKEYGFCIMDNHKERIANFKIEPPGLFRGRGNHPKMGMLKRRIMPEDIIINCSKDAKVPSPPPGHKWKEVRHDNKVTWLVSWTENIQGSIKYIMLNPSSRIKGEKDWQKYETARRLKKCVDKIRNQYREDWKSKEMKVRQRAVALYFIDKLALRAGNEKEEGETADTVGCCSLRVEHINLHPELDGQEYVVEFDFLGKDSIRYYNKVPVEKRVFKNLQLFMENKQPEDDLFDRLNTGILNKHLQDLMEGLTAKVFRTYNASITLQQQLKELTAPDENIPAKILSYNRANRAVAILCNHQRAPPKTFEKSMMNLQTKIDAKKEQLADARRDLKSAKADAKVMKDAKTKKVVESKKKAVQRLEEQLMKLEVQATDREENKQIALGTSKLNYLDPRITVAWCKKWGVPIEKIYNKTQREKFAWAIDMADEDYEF
Particulars: cited from earlier work.

Data set [4] concerns cancer cells. Particulars: cited from earlier work.
Data set [5] has as its system FaDu cell line not expressing ABCG2. The data set is described as follows: In vitro cell viability test, FaDu. Particulars: FIG. 28, 3 days.
For data set [6] the following is noted: human, in vivo; cited from earlier work.

T1 sequence (P17844 whole entry): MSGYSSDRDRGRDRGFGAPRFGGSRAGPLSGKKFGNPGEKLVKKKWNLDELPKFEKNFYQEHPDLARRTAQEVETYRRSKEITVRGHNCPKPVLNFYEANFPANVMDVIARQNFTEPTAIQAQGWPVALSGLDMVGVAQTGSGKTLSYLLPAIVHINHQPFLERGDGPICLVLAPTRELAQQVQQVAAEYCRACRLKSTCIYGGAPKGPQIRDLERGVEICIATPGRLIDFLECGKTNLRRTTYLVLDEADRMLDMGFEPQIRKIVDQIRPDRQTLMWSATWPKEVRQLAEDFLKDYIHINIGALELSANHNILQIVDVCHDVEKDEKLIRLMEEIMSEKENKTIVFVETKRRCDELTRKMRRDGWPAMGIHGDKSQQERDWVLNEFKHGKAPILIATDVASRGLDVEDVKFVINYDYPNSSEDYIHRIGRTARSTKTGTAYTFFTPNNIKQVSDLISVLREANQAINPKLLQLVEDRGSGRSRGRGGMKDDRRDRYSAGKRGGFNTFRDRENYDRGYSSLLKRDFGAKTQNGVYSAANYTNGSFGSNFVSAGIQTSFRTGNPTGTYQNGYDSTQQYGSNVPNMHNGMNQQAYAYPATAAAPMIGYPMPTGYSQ

In the case of `CC[C@@]1(O)C(=O)OCc2c1cc1n(c2=O)Cc2c-1nc1cc(F)c(C)c3c1c2[C@@H](N)CC3` [exatecan], the DDX5 degradation result at DDX5 is recorded as “exhibits a MoA that degrades the DDX5 protein”. For the same compound, the “downregulating a tumor protein compared to SN-38” value in data set [1] was “better effect in downregulating a tumor protein”.
Regarding `CC[C@@]1(O)C(=O)OCc2c1cc1n(c2=O)Cc2cc3cc4c(cc3nc2-1)OCO4` [FL118], the DDX5 degradation entry at DDX5 was “superior to other substances”. The IC50 in the data set on cancer cells [2] was less than 100 nM. For the same compound, on ABCG2 transporter, the “effect of ABCG2 transporter” value is “not affected by the ABCG2 transporter”. In addition, the “efficacy compared to SN-38” value in data set [3] is recorded as “superior efficiency compared to SN-38; also recorded: strong tumor regression efficacy compared to SN-38”. Further, the safety entry in “GLP-toxicity tests” is recorded as “excellent safety”. Further, the “downregulating a tumor protein compared to SN-38” value in data set [1] is listed as “better effect in downregulating a tumor protein”.
For `CC[C@@]1(O)C(=O)OCc2c1cc1n(c2=O)Cc2c-1nc1cc(F)c(C)c3c1c2[C@@H](NC(=O)CO)CC3` [Dxd], on DNA topoisomerase-1, the IC50 is 310 nM. Moreover, the DDX5 degradation entry on DDX5 was “exhibits a MoA that degrades the DDX5 protein”. In the data set on cancer cells [4], the “cytotoxicity / activity in cancer cells relative to SN-38” value is “about 10 times”.
Consider `CC[C@@]1(O)C(=O)OCc2c1cc1n(c2=O)Cc2c-1nc1cc3c(c4c1c2[C@@H](NC(=O)[C@@H](O)C1CC1)CC4)OCO3` [PBX-7024], for which the apoptotic efficacy entry in data set [5] is listed as “potent apoptotic efficacy”.
As to `CC[C@@]1(O)C(=O)OCc2c1cc1n(c2=O)Cc2c-1nc1cc3c(c4c1c2[C@@H](N)CC4)OCO3` (single isomer, unassigned) [PBX-7011], the DDX5 degradation result on DDX5 was “degrading DDX5”; at DDX5 (listed as 7011), “followed by 7011, 7016, and 7014 in this order”.
On to Trodelvy, for which, in data set [6], the “diarrhea of all grades” value is 65%; the “febrile neutropenia, patients” value is on record as 7%; the “neutropenia grade 3 or higher” value is 47%; the “neutropenia of all grades” value was 61%. Also, the “neutropenic colitis, patients” value in data set [6] is reported as 0.5%.
Regarding `CC[C@@]1(O)C(=O)OCc2c1cc1n(c2=O)Cc2c-1nc1cc3c(c4c1c2[C@@H](NC(=O)[C@@H](C)O)CC4)OCO3` [PBX-7016], the DDX5 degradation result on DDX5 was “degrading DDX5; also recorded: inhibits DDX5 in a concentration-dependent manner; also recorded: works better than PBX-7014”; on DDX5 (listed as 7016) it was “followed by 7011, 7016, and 7014 in this order”.
For `CC[C@@]1(O)C(=O)OCc2c1cc1n(c2=O)Cc2c-1nc1cc3c(c4c1c2[C@@H](NC(=O)CO)CC4)OCO3` [PBX-7014], the DDX5 degradation entry is “degrading DDX5” on DDX5; “followed by 7011, 7016, and 7014 in this order” at DDX5 (listed as 7014).

As a reminder, the IC50 is the concentration that gives 50% inhibition.
